From patent US20180243308A1, “PHARMACEUTICAL COMBINATION” (Boehringer Ingelheim International GmbH, priority 2008, published 2018)

How the values were obtained:
[1] = tested on: Calu-6 xenografts (human NSCLC tumor cell line); test: subcutaneous Calu-6 NSCLC xenografts, single agents and combination; format: in vivo; details: Calu-6 xenografts in nude mice, end of experiment (38 days of treatment), suboptimal doses
Protocol: In order to analyse the anti-tumor effects of combining the inhibition of tumor angiogenesis by interfering with the VEGFR signaling cascade with the established anti-proliferative treatment modality of NSCLC with compound B1, the following in vivo experiment was performed. Nude mice carrying established subcutaneous Calu-6 xenografts (human NSCLC tumor cell line) were randomized and treated with either compound B1 or compound A1 alone or with the combination of both drugs.

[2] = tested on: advanced non-small-cell lung cancer; test: Phase II double-blind randomized study of two doses of compound A1; format: in vivo, human; details: for median Progression Free Survival (PFS) time: all patients
Protocol: This study was conducted as a Phase II double-blind, randomized study of two different doses of orally administered compound A1 in patients with advanced non-small-cell lung cancer who had failed at least one prior chemotherapy regimen. The primary efficacy endpoints evaluated were response rate and time to progression. Important secondary endpoints were survival and tolerability of compound A1.
Patients were randomly assigned to receive compound A1 at a dose of 250 mg twice daily or 150 mg twice daily. The dose of compound A1 could be reduced stepwise to no lower than 100 mg twice daily in case of undue toxicity that would prevent chronic treatment. Patients were treated until diagnosis of progression of the underlying lung cancer disease. Progressive disease, for the analysis of the primary endpoint, was defined as radiological evidence of tumour progression according to RECIST criteria.
This randomized study enrolled 73 patients in total, 36 patients at the dose of 250 mg twice daily and 37 patients at the dose of 150 mg twice daily.
The ECOG performance status score is a scale from 0 to 5 with criteria used by doctors and researchers to assess how a patient's disease is progressing, assess how the disease affects the daily living abilities of the patient, and determine appropriate treatment and prognosis (Oken, M. M., Creech, R. H., Tormey, D. C., Horton, J., Davis, T. E., McFadden, E. T., Carbone, P. P.: Toxicity And Response Criteria Of The Eastern Cooperative Oncology Group. Am J Clin Oncol 5:649-655, 1982). […] Overall Survival (OS) time is defined as the length of time a patient lives after they are diagnosed with or treated for a disease.

[3] = tested on: relapsed ovarian cancer; test: Phase II maintenance trial of compound A1 versus placebo; format: in vivo, human
Protocol: The primary efficacy endpoint of this trial was the Progression Free Survival Rate (PFSR) at 9 months after start of treatment with compound A1. As secondary endpoints PFS rate at 3 months and 6 months, respectively, and time to next anti-tumour treatment were evaluated.
Patients were randomly assigned to receive compound A1 at a dose of 250 mg twice daily or matching placebo. […] Patients were treated until diagnosis of progression of the underlying ovarian cancer disease. Progressive disease, for the analysis of the primary endpoint, was defined as either radiological progression, or tumour marker (CA-125) progression.
In total, 84 patients were entered into the trial. 44 patients were randomised to receive compound A1 at a dose of 250 mg twice daily, and 40 patients to receive matching placebo.

[4] = tested on: recurrent advanced stage NSCLC
Protocol: Patients with advanced stage NSCLC, PS 0-1, previously treated with one first line platinum-based chemotherapy regimen were eligible for this trial. […] Tumor assessments were performed at screening and after every second treatment cycle according to RECIST (Response Evaluation Criteria in Solid Tumors).

[5] = tested on: SKOV3; test: in vivo anti-tumor efficacy, SKOV3 xenograft model; details: Ovarian, SKOV3, 50 mg/kg/d
[6] = tested on: Caki-1; test: in vivo anti-tumor efficacy, Caki-1 xenograft model; details: Renal, Caki-1, 100 mg/kg/d
[7] = tested on: HT-29 large tumors; test: in vivo anti-tumor efficacy, HT-29 large tumors; details: Colorectal
[8] = tested on: GS-9L; test: in vivo anti-tumor efficacy, GS-9L syngeneic rat tumor model; details: Glioblastoma, 50 mg/kg/d
[9] = tested on: NCI-H460; test: in vivo anti-tumor efficacy, NCI-H460 xenograft model; details: Lung (non-small-cell), NCI-H460, 25 mg/kg/d
[10] = tested on: FaDu; test: in vivo anti-tumor efficacy, FaDu xenograft model; details: Head and neck, 100 mg/kg/d
[11] = tested on: PAC-120; test: in vivo anti-tumor efficacy, PAC-120 xenograft model; details: Prostate (hormone-dependent), PAC-120, 100 mg/kg/d
[12] = tested on: Calu-6; test: in vivo anti-tumor efficacy, Calu-6 xenograft model; details: Lung (non-small-cell), Calu-6, 50 mg/kg/d
[13] = tested on: Rip-Tag; test: in vivo anti-tumor efficacy, Rip-Tag murine transgenic pancreas model
[14] = tested on: HT-29; test: in vivo anti-tumor efficacy, HT-29 xenograft model; details: Colorectal, HT-29, 100 mg/kg/d
[15] = 250 mg twice daily maintenance, preliminary data output

Nc1nc2[nH]cc(CCc3ccc(C(=O)N[C@@H](CCC(=O)[O-])C(=O)[O-])cc3)c2c(=O)[nH]1.[Na+].[Na+] [compound B1, N-[4-[2-(2-amino-4,7-dihydro-4-oxo-1H-pyrrolo[2,3-d]pyrimidin-5-yl)ethyl]benzoyl]-L-Glutamic acid, disodium salt, heptahydrate, reference compound]
T/C value [1]: 46%

CCS(=O)(=O)O.COC(=O)c1ccc2c(c1)NC(=O)/C2=C(\Nc1ccc(N(C)C(=O)CN2CCN(C)CC2)cc1)c1ccccc1 [compound A1, 3-Z-[1-(4-(N-((4-methyl-piperazin-1-yl)-methylcarbonyl)-N-methyl-amino)-anilino)-1-phenyl-methylene]-6-methoxycarbonyl-2-indolinone-monoethanesulphonate]
Overall Survival (OS) time ([2]; 150 mg twice daily): 144 days
median Progression Free Survival (PFS) time ([2]; 150 mg twice daily): 48 days
Overall Survival (OS) time ([2]; 250 mg twice daily): 208 days
median Progression Free Survival (PFS) time ([2]; 250 mg twice daily): 53 days
median overall survival (OS) ([2]; all patients (ECOG 0-2)): 153 days
median PFS ([2]; baseline ECOG of 0 or 1, 150 mg twice daily): 81 days
median PFS ([2]; baseline ECOG of 0 or 1, 250 mg twice daily): 85 days
patients with stable disease ([2]; baseline ECOG of 2): one of the 17 patients
reduction (partial response) in tumor size ([2]; one patient, 250 mg twice daily, sustained through 9 months): 74%
median OS ([2]; patients with ECOG score of 0-1): 264 days
patients achieving clinical benefit ([2]; subgroup with ECOG 0 or 1): ~60%
PFS rate at 6 months (24 weeks) [3, 15]: 28.3%
PFS rate at 9 months (36 weeks) [3, 15]: 16.5%
median time to progression ([3]; based on radiological data, disregarding tumour marker progression): 143 days
PFS rate at 3 months (12 weeks) ([3]; versus placebo arm): not different between arms
time between tumour marker progression and radiological progression ([3]; versus placebo arm): longer
T/C value [1]: 33%
period the patient with the CR has been maintained on monotherapy ([4]; compound A1 monotherapy after combination stage): over 63 weeks
Maximum Tolerated Dose (MTD) of compound A1 ([4]; in combination with standard dose of compound B1 (500 mg/m^2)): 200 mg bid

COC(=O)c1ccc2c(c1)NC(=O)/C2=C(\Nc1ccc(N(C)C(=O)CN2CCN(C)CC2)cc1)c1ccccc1 [compound A, 3-Z-[1-(4-(N-((4-methyl-piperazin-1-yl)-methylcarbonyl)-N-methyl-amino)-anilino)-1-phenyl-methylene]-6-methoxycarbonyl-2-indolinone]
T/C [5]: T/C 19% @ 50 mg/kg/d
T/C [6]: T/C 13% @ 100 mg/kg/d
Efficacy [7]: tumor volume reduction
T/C [8]: T/C 32% @ 50 mg/kg/d
T/C [9]: T/C 54% @ 25 mg/kg/d
T/C [10]: T/C 11% @ 100 mg/kg/d
T/C [11]: T/C 34% @ 100 mg/kg/d
T/C [12]: T/C 24% @ 50 mg/kg/d
Efficacy (cell wraps: interference with tumor formation) [13]: interference with
T/C [14]: T/C 16% @ 100 mg/kg/d
